# According to the kinase profiling compilation of Christmann-Franck et al. (2016):
# Experiments:
# Test in all cases: KINOMEscan competition binding
# Details in all cases: compound 10.0 µM
# AURKA (human) = AURKA (human) (UniProt O14965)
# BMPR1A (human) = BMPR1A (human) (UniProt P36894)
# CAMKK2 (human) = CAMKK2 (human) (UniProt Q96RR4)
# CDK5 (human) = CDK5 (human) (UniProt Q00535)
# CDKL2 (human) = CDKL2 (human) (UniProt Q92772)
# CHEK2 (human) = CHEK2 (human) (UniProt O96017)
# CLK4 (human) = CLK4 (human) (UniProt Q9HAZ1)
# CSK (human) = CSK (human) (UniProt P41240)
# CSNK1G2 (human) = CSNK1G2 (human) (UniProt P78368)
# Sequence of CSNK1G2 (human) (P78368 whole entry, looked up): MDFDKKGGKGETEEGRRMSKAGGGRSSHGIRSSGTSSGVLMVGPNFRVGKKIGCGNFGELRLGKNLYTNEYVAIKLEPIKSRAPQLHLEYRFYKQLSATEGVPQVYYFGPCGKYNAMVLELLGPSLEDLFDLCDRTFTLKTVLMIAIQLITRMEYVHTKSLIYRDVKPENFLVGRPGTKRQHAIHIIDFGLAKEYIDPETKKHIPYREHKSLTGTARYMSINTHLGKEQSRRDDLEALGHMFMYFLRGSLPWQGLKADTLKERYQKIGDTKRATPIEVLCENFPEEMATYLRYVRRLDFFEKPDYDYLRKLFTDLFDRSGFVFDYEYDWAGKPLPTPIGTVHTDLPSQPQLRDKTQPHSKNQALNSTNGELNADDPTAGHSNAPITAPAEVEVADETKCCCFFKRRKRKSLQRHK
# EPHB3 (human) = EPHB3 (human) (UniProt P54753)
# FGFR2 (human) = FGFR2 (human) (UniProt P21802)
# FGFR4 (human) = FGFR4 (human) (UniProt P22455)
# Sequence of FGFR4 (human) (P22455 whole entry, looked up): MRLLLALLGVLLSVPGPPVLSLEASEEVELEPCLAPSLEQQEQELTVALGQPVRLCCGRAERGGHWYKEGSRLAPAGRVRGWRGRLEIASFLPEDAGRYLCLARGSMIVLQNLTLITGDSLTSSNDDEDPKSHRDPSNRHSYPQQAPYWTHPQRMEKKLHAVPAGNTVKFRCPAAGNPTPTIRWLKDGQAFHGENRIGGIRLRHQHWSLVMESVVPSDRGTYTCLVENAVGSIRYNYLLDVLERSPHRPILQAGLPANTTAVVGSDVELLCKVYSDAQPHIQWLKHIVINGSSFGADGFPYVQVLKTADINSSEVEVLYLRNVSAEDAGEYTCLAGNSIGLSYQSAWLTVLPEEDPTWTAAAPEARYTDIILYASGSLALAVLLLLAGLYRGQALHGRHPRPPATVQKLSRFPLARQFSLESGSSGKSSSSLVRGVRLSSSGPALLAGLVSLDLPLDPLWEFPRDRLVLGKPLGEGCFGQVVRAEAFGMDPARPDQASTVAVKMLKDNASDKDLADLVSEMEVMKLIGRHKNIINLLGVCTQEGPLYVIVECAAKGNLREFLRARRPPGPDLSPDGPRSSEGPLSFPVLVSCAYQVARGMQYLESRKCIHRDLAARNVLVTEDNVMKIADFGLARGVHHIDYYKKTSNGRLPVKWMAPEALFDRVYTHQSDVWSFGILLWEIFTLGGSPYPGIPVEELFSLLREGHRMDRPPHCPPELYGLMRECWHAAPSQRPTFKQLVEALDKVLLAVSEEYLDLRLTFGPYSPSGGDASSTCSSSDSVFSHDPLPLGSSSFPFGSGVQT
# INSR (human) = INSR (human) (UniProt P06213)
# IRAK3 (human) = IRAK3 (human) (UniProt Q9Y616)
# KDR (human) = KDR (human) (UniProt P35968)
# [1] = system: KIT (human), P10721 [V559D]
# Sequence of KIT (human), P10721 [V559D] (P10721 whole entry V559D, looked up): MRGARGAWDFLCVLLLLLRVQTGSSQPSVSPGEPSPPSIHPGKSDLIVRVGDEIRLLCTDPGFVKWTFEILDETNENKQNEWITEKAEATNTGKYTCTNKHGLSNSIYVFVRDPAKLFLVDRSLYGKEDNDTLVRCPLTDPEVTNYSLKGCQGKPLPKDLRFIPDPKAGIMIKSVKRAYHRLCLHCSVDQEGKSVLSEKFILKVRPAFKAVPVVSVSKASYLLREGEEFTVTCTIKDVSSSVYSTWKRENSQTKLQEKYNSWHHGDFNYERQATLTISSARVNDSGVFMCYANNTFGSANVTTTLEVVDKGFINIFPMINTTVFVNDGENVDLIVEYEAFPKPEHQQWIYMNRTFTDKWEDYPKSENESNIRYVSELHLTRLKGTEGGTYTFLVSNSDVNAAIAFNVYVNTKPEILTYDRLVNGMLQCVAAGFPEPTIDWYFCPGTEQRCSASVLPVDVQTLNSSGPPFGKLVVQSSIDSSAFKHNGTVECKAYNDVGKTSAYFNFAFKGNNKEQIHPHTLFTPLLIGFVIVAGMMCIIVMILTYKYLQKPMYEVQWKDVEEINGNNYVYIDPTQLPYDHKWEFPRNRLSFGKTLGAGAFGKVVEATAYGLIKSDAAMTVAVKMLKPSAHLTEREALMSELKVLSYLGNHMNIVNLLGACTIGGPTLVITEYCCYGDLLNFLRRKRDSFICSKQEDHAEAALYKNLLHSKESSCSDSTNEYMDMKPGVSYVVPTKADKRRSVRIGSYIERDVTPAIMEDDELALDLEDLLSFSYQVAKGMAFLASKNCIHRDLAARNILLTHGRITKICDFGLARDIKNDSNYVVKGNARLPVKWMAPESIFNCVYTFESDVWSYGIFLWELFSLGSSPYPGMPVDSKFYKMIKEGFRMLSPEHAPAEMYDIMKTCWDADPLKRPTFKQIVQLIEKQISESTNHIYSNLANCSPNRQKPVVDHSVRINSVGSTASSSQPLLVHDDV
# MAP2K4 (human) = MAP2K4 (human) (UniProt P45985)
# MAP3K12 (human) = MAP3K12 (human) (UniProt Q12852)
# Sequence of MAP3K12 (human) (Q12852 whole entry, looked up): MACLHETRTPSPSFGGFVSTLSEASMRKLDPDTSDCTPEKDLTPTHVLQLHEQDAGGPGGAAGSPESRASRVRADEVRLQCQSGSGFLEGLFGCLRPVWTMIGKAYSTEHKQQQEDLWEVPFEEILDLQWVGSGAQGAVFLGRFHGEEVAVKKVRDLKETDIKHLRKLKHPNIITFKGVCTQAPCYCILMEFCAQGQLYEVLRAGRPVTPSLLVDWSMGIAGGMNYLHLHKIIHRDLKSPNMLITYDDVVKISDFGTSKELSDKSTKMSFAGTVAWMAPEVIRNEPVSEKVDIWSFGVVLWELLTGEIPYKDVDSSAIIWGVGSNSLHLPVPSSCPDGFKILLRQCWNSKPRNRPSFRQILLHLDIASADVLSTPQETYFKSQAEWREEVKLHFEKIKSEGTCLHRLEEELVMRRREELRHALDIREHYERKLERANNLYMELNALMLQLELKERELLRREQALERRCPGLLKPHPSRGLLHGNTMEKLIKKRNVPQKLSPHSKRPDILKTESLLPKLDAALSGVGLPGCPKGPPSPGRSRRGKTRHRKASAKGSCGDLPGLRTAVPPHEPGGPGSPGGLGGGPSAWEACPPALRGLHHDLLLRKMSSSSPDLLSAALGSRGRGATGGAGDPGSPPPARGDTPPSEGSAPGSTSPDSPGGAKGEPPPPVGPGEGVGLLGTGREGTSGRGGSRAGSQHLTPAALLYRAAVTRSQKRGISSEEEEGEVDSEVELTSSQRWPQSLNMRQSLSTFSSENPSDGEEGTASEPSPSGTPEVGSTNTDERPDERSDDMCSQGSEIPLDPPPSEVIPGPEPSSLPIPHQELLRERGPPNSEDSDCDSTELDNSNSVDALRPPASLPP
# MAP3K9 (human) = MAP3K9 (human) (UniProt P80192)
# Sequence of MAP3K9 (human) (P80192 whole entry, looked up): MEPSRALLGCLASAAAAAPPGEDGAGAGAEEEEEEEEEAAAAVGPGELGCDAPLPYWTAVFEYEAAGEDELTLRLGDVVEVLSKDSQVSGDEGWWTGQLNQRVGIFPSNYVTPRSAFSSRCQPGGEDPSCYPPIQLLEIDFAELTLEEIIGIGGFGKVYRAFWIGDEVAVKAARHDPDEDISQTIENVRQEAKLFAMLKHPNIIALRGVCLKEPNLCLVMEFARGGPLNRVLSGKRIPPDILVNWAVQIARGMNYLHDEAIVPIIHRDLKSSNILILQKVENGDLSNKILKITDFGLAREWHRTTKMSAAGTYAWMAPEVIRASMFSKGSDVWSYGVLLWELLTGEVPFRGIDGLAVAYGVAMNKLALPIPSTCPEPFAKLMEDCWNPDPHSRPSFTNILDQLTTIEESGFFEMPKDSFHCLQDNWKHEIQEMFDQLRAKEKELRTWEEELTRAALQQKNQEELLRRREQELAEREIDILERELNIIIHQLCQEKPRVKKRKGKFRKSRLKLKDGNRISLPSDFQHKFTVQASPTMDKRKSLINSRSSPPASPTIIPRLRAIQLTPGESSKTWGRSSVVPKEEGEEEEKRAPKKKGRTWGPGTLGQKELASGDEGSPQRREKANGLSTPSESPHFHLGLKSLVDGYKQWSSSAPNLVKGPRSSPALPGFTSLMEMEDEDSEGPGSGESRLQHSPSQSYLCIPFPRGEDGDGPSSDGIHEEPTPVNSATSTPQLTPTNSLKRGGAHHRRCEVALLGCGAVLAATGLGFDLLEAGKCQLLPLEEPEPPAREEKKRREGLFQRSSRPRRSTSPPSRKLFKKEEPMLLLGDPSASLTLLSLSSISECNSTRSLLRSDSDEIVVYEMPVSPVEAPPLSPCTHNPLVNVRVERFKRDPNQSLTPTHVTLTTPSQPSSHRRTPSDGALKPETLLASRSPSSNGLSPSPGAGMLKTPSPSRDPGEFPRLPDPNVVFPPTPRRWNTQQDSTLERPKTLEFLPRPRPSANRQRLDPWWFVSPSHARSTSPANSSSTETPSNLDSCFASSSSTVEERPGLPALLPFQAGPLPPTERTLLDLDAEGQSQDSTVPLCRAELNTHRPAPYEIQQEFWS
# MAP4K3 (human) = MAP4K3 (human) (UniProt Q8IVH8)
# MAP4K4 (human) = MAP4K4 (human) (UniProt O95819)
# MAPK6 (human) = MAPK6 (human) (UniProt Q16659)
# MYLK4 (human) = MYLK4 (human) (UniProt Q86YV6)
# Sequence of MYLK4 (human) (Q86YV6 whole entry, looked up): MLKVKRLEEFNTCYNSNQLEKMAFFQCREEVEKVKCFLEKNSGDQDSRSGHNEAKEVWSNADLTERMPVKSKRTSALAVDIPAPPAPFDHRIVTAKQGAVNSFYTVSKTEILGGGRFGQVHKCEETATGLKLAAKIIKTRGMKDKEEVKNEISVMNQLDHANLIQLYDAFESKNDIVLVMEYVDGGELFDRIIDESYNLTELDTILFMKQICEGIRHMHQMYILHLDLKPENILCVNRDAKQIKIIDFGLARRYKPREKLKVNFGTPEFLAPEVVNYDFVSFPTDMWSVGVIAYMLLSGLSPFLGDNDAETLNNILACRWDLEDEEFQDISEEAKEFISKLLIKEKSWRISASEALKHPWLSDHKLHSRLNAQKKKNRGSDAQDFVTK
# MYO3B (human) = MYO3B (human) (UniProt Q8WXR4)
# NTRK3 (human) = NTRK3 (human) (UniProt Q16288)
# PAK1 (human) = PAK1 (human) (UniProt Q13153)
# PAK2 (human) = PAK2 (human) (UniProt Q13177)
# PDGFRA (human) = PDGFRA (human) (UniProt P16234)
# PIP5K1A (human) = PIP5K1A (human) (UniProt Q99755)
# PRKCQ (human) = PRKCQ (human) (UniProt Q04759)
# RIPK4 (human) = RIPK4 (human) (UniProt P57078)
# ROCK2 (human) = ROCK2 (human) (UniProt O75116)
# RPS6KA2 KD2 (human) = RPS6KA2 KD2 (human) (UniProt Q15349)
# RPS6KA3 KD1 (human) = RPS6KA3 KD1 (human) (UniProt P51812)
# RPS6KA4 KD2 (human) = RPS6KA4 KD2 (human) (UniProt O75676)
# RPS6KA5 KD2 (human) = RPS6KA5 KD2 (human) (UniProt O75582)
# STK10 (human) = STK10 (human) (UniProt O94804)
# STK32B (human) = STK32B (human) (UniProt Q9NY57)
# Sequence of STK32B (human) (Q9NY57 whole entry, looked up): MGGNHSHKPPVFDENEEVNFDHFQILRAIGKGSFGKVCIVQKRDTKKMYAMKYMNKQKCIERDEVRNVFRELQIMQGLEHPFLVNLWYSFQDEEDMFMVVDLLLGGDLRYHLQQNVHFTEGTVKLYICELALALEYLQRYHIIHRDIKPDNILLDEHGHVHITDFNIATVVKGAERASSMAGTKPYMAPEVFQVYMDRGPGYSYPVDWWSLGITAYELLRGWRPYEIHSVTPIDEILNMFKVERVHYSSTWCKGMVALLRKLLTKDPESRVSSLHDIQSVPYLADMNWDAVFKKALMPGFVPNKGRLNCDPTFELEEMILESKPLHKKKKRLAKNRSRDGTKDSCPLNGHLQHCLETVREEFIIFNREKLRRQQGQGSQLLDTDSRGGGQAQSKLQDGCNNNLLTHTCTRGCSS
# TESK1 (human) = TESK1 (human) (UniProt Q15569)
# [2] = target: TYK2 JH2 pseudokinase (human) (UniProt P29597)
Structure (SMILES),"kinase still bound, per cent of control (AURKA (human)) [%]","kinase still bound, per cent of control (BMPR1A (human)) [%]","kinase still bound, per cent of control (CAMKK2 (human)) [%]","kinase still bound, per cent of control (CDK5 (human)) [%]","kinase still bound, per cent of control (CDKL2 (human)) [%]","kinase still bound, per cent of control (CHEK2 (human)) [%]","kinase still bound, per cent of control (CLK4 (human)) [%]","kinase still bound, per cent of control (CSK (human)) [%]","kinase still bound, per cent of control (CSNK1G2 (human)) [%]","kinase still bound, per cent of control (EPHB3 (human)) [%]","kinase still bound, per cent of control (FGFR2 (human)) [%]","kinase still bound, per cent of control (FGFR4 (human)) [%]","kinase still bound, per cent of control (INSR (human)) [%]","kinase still bound, per cent of control (IRAK3 (human)) [%]","kinase still bound, per cent of control (KDR (human)) [%]","kinase still bound, per cent of control [1] [%]","kinase still bound, per cent of control (MAP2K4 (human)) [%]","kinase still bound, per cent of control (MAP3K12 (human)) [%]","kinase still bound, per cent of control (MAP3K9 (human)) [%]","kinase still bound, per cent of control (MAP4K3 (human)) [%]",also measured
Cc1ccc(C(=O)Nc2cccc(C(F)(F)F)c2)cc1Nc1cncc(C(N)=O)c1,100,100,100,100,100,100,100,100,100,3.3,100,100,100,100,100,0,100,100,100,100,"kinase still bound, per cent of control (MAP4K4 (human)): 100%; kinase still bound, per cent of control (MAPK6 (human)): 100%; kinase still bound, per cent of control (MYLK4 (human)): 100%; kinase still bound, per cent of control (MYO3B (human)): 100%; kinase still bound, per cent of control (NTRK3 (human)): 15%; kinase still bound, per cent of control (PAK1 (human)): 100%; kinase still bound, per cent of control (PAK2 (human)): 100%; kinase still bound, per cent of control (PDGFRA (human)): 0.2%; kinase still bound, per cent of control (PIP5K1A (human)): 100%; kinase still bound, per cent of control (PRKCQ (human)): 100%; kinase still bound, per cent of control (RIPK4 (human)): 100%; kinase still bound, per cent of control (ROCK2 (human)): 100%; kinase still bound, per cent of control (RPS6KA2 KD2 (human)): 100%; kinase still bound, per cent of control (RPS6KA3 KD1 (human)): 100%; kinase still bound, per cent of control (RPS6KA4 KD2 (human)): 100%; kinase still bound, per cent of control (RPS6KA5 KD2 (human)): 100%; kinase still bound, per cent of control (STK10 (human)): 100%; kinase still bound, per cent of control (STK32B (human)): 100%; kinase still bound, per cent of control (TESK1 (human)): 100%; kinase still bound, per cent of control [2]: 100%"
OCCCNc1cc(-c2ccnc(Nc3cccc(Cl)c3)n2)ccn1,100,100,100,100,14,100,14,100,100,100,100,100,100,100,100,100,100,100,100,100,"kinase still bound, per cent of control (MAP4K4 (human)): 100%; kinase still bound, per cent of control (MAPK6 (human)): 100%; kinase still bound, per cent of control (MYLK4 (human)): 100%; kinase still bound, per cent of control (MYO3B (human)): 100%; kinase still bound, per cent of control (NTRK3 (human)): 100%; kinase still bound, per cent of control (PAK1 (human)): 100%; kinase still bound, per cent of control (PAK2 (human)): 100%; kinase still bound, per cent of control (PDGFRA (human)): 100%; kinase still bound, per cent of control (PIP5K1A (human)): 100%; kinase still bound, per cent of control (PRKCQ (human)): 100%; kinase still bound, per cent of control (RIPK4 (human)): 100%; kinase still bound, per cent of control (ROCK2 (human)): 100%; kinase still bound, per cent of control (RPS6KA2 KD2 (human)): 100%; kinase still bound, per cent of control (RPS6KA3 KD1 (human)): 100%; kinase still bound, per cent of control (RPS6KA4 KD2 (human)): 100%; kinase still bound, per cent of control (RPS6KA5 KD2 (human)): 100%; kinase still bound, per cent of control (STK10 (human)): 100%; kinase still bound, per cent of control (STK32B (human)): 100%; kinase still bound, per cent of control (TESK1 (human)): 100%; kinase still bound, per cent of control [2]: 100%"
